Reference: the kinase profiling compilation of Christmann-Franck et al. (2016)
“And” between values parts separate entries of the source, which are not always exact repeats. Equal entries are not always repeated.

Assays:
Test in all cases: radiometric filter-binding kinase assay, Kinase HotSpot
Conditions in all cases: compound 0.5 µM; ATP 10 µM
AKT3 (human) = AKT3 (human) (UniProt Q9Y243)
HCK (human) = HCK (human) (UniProt P08631)
SRPK1 (human) = SRPK1 (human) (UniProt Q96SB4)
FRK (human) = FRK (human) (UniProt P42685)
AURKB (human) = AURKB (human) (UniProt Q96GD4)
FYN (human) = FYN (human) (UniProt P06241)
PTK2B (human) = PTK2B (human) (UniProt Q14289)
MKNK2 (human) = MKNK2 (human) (UniProt Q9HBH9)
PASK (human) = PASK (human) (UniProt Q96RG2)
CSNK2A2 (human) = CSNK2A2 (human) (UniProt P19784)
PNCK (human) = PNCK (human) (UniProt Q6P2M8)
WEE1 (human) = WEE1 (human) (UniProt P30291)
[1] = biological target: TYK2 JH1 catalytic (human) (UniProt P29597)
VRK1 (human) = VRK1 (human) (UniProt Q99986)
MET (human) = MET (human) (UniProt P08581)
ABL2 (human) = ABL2 (human) (UniProt P42684)
LIMK1 (human) = LIMK1 (human) (UniProt P53667)
EPHA6 (human) = EPHA6 (human) (UniProt Q9UF33)
DCLK2 (human) = DCLK2 (human) (UniProt Q8N568)
[2] = biological target: JAK1 JH1 catalytic (human) (UniProt P23458)
FGFR3 (human) = FGFR3 (human) (UniProt P22607)
DYRK4 (human) = DYRK4 (human) (UniProt Q9NR20)
ULK3 (human) = ULK3 (human) (UniProt Q6PHR2)
FGFR1 (human) = FGFR1 (human) (UniProt P11362)
NUAK2 (human) = NUAK2 (human) (UniProt Q9H093)
MYO3B (human) = MYO3B (human) (UniProt Q8WXR4)
GSK3B (human) = GSK3B (human) (UniProt P49841)
CSNK1G1 (human) = CSNK1G1 (human) (UniProt Q9HCP0)
PRKG1 (human) = PRKG1 (human) (UniProt Q13976)
BMX (human) = BMX (human) (UniProt P51813)
EPHB2 (human) = EPHB2 (human) (UniProt P29323)
CAMKK1 (human) = CAMKK1 (human) (UniProt Q8N5S9)
PLK2 (human) = PLK2 (human) (UniProt Q9NYY3)
WNK3 (human) = WNK3 (human) (UniProt Q9BYP7)
MAP2K1 (human) = MAP2K1 (human) (UniProt Q02750)
MAPK13 (human) = MAPK13 (human) (UniProt O15264)
PRKACG (human) = PRKACG (human) (UniProt P22612)
EPHA1 (human) = EPHA1 (human) (UniProt P21709)
GSG2 (human) = GSG2 (human) (UniProt Q8TF76)
PIM3 (human) = PIM3 (human) (UniProt Q86V86)
FES (human) = FES (human) (UniProt P07332)
STK16 (human) = STK16 (human) (UniProt O75716)

Chain of PRKG1 (human) (Q13976 whole entry, looked up): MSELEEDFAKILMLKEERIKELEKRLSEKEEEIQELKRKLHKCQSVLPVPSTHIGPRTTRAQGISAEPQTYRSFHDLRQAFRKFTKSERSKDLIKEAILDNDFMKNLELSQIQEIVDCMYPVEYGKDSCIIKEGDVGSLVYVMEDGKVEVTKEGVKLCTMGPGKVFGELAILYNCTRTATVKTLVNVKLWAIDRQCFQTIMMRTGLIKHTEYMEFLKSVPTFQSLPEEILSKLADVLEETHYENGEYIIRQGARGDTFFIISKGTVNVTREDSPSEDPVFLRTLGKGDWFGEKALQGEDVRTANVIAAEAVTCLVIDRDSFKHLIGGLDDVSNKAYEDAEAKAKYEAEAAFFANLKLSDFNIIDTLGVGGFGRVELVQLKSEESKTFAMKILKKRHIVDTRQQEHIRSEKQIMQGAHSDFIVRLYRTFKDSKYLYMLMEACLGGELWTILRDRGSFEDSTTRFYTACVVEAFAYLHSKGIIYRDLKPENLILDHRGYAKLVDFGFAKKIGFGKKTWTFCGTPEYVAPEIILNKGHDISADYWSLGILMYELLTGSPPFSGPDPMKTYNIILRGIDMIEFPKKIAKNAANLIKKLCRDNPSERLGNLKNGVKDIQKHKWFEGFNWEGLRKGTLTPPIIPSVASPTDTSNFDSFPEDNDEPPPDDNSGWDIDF
Chain of AKT3 (human) (Q9Y243 whole entry, looked up): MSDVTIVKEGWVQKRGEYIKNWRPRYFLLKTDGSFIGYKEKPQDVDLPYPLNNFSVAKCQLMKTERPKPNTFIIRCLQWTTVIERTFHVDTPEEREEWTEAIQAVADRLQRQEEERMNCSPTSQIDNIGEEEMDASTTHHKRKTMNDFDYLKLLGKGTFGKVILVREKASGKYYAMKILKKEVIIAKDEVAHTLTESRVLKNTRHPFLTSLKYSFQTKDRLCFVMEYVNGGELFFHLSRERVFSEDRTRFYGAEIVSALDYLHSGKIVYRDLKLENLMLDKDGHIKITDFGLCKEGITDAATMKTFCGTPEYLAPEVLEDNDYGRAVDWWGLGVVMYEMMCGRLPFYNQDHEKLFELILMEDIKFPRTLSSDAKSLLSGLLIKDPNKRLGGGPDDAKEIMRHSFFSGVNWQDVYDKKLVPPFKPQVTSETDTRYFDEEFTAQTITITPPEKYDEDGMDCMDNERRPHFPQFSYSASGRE
Chain of PRKACG (human) (P22612 whole entry, looked up): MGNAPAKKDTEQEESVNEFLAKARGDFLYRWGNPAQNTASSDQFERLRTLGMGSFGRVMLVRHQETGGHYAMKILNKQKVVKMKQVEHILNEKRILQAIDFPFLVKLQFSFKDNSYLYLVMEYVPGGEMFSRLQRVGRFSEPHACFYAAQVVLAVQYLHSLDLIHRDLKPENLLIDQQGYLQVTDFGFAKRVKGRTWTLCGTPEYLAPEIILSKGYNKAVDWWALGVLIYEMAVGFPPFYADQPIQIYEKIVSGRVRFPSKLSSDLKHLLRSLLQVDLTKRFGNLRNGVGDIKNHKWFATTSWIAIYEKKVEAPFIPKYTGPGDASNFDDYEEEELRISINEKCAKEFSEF
Chain of FYN (human) (P06241 whole entry, looked up): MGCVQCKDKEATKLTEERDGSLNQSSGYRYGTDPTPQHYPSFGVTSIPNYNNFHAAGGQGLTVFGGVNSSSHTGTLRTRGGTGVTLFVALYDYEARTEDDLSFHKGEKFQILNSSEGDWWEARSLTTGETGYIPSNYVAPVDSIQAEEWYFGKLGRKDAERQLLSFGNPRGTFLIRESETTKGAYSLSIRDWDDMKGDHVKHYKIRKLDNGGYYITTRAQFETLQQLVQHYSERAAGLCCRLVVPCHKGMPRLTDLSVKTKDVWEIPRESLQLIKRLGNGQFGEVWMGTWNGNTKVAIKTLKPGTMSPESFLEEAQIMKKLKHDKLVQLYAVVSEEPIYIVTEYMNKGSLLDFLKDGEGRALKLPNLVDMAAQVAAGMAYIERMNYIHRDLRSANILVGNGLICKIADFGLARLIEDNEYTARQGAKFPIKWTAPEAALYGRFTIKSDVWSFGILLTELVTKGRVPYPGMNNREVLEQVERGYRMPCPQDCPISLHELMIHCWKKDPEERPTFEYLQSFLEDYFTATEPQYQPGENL
Chain of BMX (human) (P51813 whole entry, looked up): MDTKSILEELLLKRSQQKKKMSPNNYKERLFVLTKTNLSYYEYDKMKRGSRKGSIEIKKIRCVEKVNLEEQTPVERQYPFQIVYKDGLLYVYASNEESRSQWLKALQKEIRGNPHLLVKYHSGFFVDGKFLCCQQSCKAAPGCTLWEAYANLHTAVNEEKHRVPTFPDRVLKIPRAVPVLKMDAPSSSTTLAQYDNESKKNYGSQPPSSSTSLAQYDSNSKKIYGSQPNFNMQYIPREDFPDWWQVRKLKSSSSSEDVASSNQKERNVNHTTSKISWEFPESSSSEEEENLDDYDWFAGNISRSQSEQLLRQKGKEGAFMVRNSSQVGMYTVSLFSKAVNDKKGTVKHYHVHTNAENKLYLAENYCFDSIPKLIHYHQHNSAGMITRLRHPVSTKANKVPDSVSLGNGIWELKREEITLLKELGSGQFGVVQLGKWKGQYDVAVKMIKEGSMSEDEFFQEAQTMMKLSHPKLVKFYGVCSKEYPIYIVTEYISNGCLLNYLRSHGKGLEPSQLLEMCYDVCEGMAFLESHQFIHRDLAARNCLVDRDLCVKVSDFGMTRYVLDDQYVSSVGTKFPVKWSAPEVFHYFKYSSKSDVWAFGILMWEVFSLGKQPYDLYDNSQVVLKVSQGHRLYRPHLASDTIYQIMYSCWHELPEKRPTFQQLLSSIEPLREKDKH
Chain of ABL2 (human) (P42684 whole entry, looked up): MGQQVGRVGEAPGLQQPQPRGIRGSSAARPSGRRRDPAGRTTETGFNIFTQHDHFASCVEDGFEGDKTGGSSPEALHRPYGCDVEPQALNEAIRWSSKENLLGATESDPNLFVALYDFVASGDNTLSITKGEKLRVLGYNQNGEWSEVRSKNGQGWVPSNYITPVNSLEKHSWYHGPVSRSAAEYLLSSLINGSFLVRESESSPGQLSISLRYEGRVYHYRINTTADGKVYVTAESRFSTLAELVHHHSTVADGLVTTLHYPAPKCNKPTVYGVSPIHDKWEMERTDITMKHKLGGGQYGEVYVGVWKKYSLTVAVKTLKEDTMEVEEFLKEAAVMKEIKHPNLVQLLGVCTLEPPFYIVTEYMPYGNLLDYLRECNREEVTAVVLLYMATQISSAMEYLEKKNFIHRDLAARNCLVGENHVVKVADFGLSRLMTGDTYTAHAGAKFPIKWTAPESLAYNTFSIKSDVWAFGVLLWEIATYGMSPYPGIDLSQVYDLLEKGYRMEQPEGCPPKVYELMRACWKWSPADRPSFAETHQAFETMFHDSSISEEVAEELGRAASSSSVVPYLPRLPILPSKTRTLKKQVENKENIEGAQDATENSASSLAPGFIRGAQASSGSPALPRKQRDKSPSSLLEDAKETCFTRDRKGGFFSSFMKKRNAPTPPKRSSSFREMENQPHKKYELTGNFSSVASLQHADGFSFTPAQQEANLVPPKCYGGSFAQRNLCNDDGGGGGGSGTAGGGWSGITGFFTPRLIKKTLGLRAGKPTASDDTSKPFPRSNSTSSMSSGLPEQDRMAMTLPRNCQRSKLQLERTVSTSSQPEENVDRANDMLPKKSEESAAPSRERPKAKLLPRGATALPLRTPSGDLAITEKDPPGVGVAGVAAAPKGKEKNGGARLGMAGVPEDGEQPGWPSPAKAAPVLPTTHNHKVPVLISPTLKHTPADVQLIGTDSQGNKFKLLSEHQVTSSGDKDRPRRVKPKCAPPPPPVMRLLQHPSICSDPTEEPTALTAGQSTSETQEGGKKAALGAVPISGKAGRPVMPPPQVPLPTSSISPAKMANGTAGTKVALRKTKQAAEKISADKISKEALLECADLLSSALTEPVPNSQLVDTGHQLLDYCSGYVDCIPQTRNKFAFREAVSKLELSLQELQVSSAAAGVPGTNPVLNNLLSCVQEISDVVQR
Chain of PNCK (human) (Q6P2M8 whole entry, looked up): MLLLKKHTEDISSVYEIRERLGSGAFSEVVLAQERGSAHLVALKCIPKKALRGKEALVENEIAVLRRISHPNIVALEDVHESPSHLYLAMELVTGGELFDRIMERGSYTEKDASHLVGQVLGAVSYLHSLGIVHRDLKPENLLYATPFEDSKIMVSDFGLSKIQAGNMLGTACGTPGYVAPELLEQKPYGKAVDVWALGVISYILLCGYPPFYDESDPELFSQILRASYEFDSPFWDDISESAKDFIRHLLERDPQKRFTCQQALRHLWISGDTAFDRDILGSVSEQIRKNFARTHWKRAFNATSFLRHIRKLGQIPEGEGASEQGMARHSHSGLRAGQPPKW
Chain of NUAK2 (human) (Q9H093 whole entry, looked up): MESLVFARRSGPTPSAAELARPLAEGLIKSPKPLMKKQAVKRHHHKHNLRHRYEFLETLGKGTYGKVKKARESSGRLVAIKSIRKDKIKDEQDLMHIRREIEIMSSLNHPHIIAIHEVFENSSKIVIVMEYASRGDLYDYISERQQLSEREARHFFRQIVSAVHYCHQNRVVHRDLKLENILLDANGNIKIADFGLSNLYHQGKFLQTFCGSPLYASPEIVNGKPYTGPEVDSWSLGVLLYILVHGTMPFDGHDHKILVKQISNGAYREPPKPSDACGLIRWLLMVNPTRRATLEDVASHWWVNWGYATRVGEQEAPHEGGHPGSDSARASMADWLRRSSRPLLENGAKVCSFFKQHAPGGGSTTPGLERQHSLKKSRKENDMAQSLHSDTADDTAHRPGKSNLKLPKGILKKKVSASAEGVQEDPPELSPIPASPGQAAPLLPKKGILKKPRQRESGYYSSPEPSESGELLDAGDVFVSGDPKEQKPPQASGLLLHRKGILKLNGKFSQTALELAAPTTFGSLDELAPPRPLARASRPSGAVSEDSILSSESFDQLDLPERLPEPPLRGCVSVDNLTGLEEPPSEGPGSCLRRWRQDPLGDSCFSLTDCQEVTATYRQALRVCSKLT

Cc1nc(-c2ccccc2)c(-c2ccncc2)o1
residual activity (AKT3 (human)): 106%
residual activity (HCK (human)): 98.9%
residual activity (SRPK1 (human)): 101%
residual activity (FRK (human)): 103%
residual activity (AURKB (human)): 97.3%
residual activity (FYN (human)): 99.8%
residual activity (PTK2B (human)): 100%
residual activity (MKNK2 (human)): 90.5%
residual activity (PASK (human)): 98.1%
residual activity (CSNK2A2 (human)): 89.8%
residual activity (PNCK (human)): 96.6%
residual activity (WEE1 (human)): 91.9%
residual activity [1]: 109%
residual activity (VRK1 (human)): 98.5%
residual activity (MET (human)): 102%
residual activity (ABL2 (human)): 92.8%
residual activity (LIMK1 (human)): 95.5%
residual activity (EPHA6 (human)): 95.9%
residual activity (DCLK2 (human)): 97%
residual activity [2]: 103%
residual activity (FGFR3 (human)): 95.6%
residual activity (DYRK4 (human)): 91.2%
residual activity (ULK3 (human)): 94.3%
residual activity (FGFR1 (human)): 90.9%
residual activity (NUAK2 (human)): 128%
residual activity (MYO3B (human)): 108%
residual activity (GSK3B (human)): 105%
residual activity (CSNK1G1 (human)): 91.1%
residual activity (PRKG1 (human)): 90.5% and 96.1%
residual activity (BMX (human)): 102%
residual activity (EPHB2 (human)): 99.8%
residual activity (CAMKK1 (human)): 123%
residual activity (PLK2 (human)): 106%
residual activity (WNK3 (human)): 106%
residual activity (MAP2K1 (human)): 90.7%
residual activity (MAPK13 (human)): 114%
residual activity (PRKACG (human)): 108%
residual activity (EPHA1 (human)): 93.8%
residual activity (GSG2 (human)): 87.6%
residual activity (PIM3 (human)): 106%
residual activity (FES (human)): 101%
residual activity (STK16 (human)): 109%

N#C/C(=C\c1ccc(O)c(O)c1)C(=O)NCc1ccccc1
residual activity (AKT3 (human)): 90.8%
residual activity (HCK (human)): 97.5%
residual activity (SRPK1 (human)): 104%
residual activity (FRK (human)): 97.4%
residual activity (AURKB (human)): 94.4%
residual activity (FYN (human)): 116%
residual activity (PTK2B (human)): 92.6%
residual activity (MKNK2 (human)): 87.9%
residual activity (PASK (human)): 95.1%
residual activity (CSNK2A2 (human)): 81.9%
residual activity (PNCK (human)): 97.1%
residual activity (WEE1 (human)): 89.9%
residual activity [1]: 97.1%
residual activity (VRK1 (human)): 97%
residual activity (MET (human)): 98.1%
residual activity (ABL2 (human)): 93.4%
residual activity (LIMK1 (human)): 97%
residual activity (EPHA6 (human)): 95.7%
residual activity (DCLK2 (human)): 101%
residual activity [2]: 93.8%
residual activity (FGFR3 (human)): 98.2%
residual activity (DYRK4 (human)): 106%
residual activity (ULK3 (human)): 71.2%
residual activity (FGFR1 (human)): 92.8%
residual activity (NUAK2 (human)): 131%
residual activity (MYO3B (human)): 88.3%
residual activity (GSK3B (human)): 106%
residual activity (CSNK1G1 (human)): 102%
residual activity (PRKG1 (human)): 89.2% and 92.6%
residual activity (BMX (human)): 88.8%
residual activity (EPHB2 (human)): 99.7%
residual activity (CAMKK1 (human)): 102%
residual activity (PLK2 (human)): 105%
residual activity (WNK3 (human)): 95%
residual activity (MAP2K1 (human)): 94%
residual activity (MAPK13 (human)): 101%
residual activity (PRKACG (human)): 90.7%
residual activity (EPHA1 (human)): 99.4%
residual activity (GSG2 (human)): 104%
residual activity (PIM3 (human)): 95.8%
residual activity (FES (human)): 101%
residual activity (STK16 (human)): 99.1%
